Reference: patent publication US7998978B2 (Pfizer Inc., priority 2006, dated 2011)
pKi: −log10 of the molar value.

Target: T1, JNK1α1 (Homo sapiens, UniProt P45983)
T1 construct: catalytic domain containing amino acids 1-364 and N-terminal hexahistidine tag; hexahistidine (His6) (N); made in house; host or cells: E. coli BL21 (DE3)
Test: Coupled spectrophotometric (PK/LDH) JNK1α1 assay: % inhibition and Ki determination
Format: biochemical
Conditions: for inhibition at 1 µM / inhibition at 10 µM: read-out: % Inhibition JNK-1; for pKi: JNK-1
Protocol: % Inhibition and Ki Determination
A coupled spectrophotometric assay, coupling JNK1α1 activity to the oxidation of β-NADH to NAD+ through the action of pyruvate kinase (PK) and lactic dehydrogenase (LDH), was used to determine the potency (percent inhibition at 1 or 10 μM or Ki) of compounds against JNK1α1 (Genbank Accession Number: L26318). […] The reaction was monitored by following the decrease in absorbance at 340 nm. The initial reaction rate was determined by the slope of the change in absorbance. To calculate percent inhibition the rate of the reaction in the presence of 1 or 10 μM compound was compared to the rate of the reaction with only DMSO multiplied by 100 percent. Note, the background rate of the above reaction in the presence of 10 μM PHA-00738186 was subtracted from all rates. […] Y=(−X+Eo−(Ki*(1+A/Km))+((X−Eo+(Ki*(1+A/Km)))^2+4*Eo*(Ki*(1+A/Km)))^0.5)*(Vm*A/(Km+A)/(2*Eo)) Formula: • Parameters: Eo, Ki, A, Km, Vo • Y is initial reaction velocity; • X is inhibitor concentration; • A is [ATP]; • Ki is inhibition constant; • Vm is Vmax; • Eo is total (initial) enzyme concentration; • Km is ATP Km;
The compounds were prepared in 100% DMSO at a 40× concentration. For percent inhibition experiments this would be 400 or 40 μM for 10 and 1 μM final concentration, respectively. For the Ki determination 3× serial dilutions were made starting at 4 mM (100 μM at 1×) in DMSO. A total of 11 concentrations were used for the analysis. The compounds were added to the reaction plate first. Next, a solution containing the HEPES, MgCl2, DTT, peptide substrate, NADH, PEP, PK/LDH enzyme, and JNK1α1—364nHis enzyme was added to the assay plate. The plate was incubated at room temperature for 15 minutes. Then the plate was warmed to 30° C. for 5 minutes. The reaction was initiated with the addition of ATP. The reaction was run in a plate reader at 30° C. for 20 minutes with absorbance readings made about every 10 seconds.
The column with “#” heading refers to compound number as exemplified in the Examples section. The column with “Ki” heading refers to Ki (in nM). The column with “% Inhibition” heading refers to percent inhibition of JNK-1 at 1 μM or 10 μM (in %) unless otherwise stated. ND refers to no data was taken.

T1 sequence (P45983 1-364): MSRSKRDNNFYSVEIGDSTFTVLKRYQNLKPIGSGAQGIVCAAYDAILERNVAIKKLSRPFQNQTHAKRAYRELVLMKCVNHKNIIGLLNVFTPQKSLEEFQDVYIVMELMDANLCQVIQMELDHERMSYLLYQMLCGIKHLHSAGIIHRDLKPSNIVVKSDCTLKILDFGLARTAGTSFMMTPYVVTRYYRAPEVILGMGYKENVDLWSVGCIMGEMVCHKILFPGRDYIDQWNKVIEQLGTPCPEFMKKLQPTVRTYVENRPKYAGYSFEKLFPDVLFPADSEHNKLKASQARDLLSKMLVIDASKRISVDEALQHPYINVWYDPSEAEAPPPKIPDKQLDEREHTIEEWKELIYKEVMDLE

SMILES	pKi	also measured
O=C(N[C@H](CO)c1ccccc1)c1cccc2cnc(N[C@H]3CC[C@H](O)CC3)nc12 [Example 470, 2-[(trans-4-hydroxycyclohexyl)amino]-N-[(1S)-2-hydroxy-1-phenylethyl]quinazoline-8-carboxamide]		inhibition at 1 µM: 27%
O=C(CCc1cncnc1)Nc1cc2cc(-c3cn[nH]c3)ccc2cn1 [Example 29, N-[6-(1H-pyrazol-4-yl)isoquinolin-3-yl]-3-pyrimidin-5-ylpropanamide]	7.66	
CS(=O)(=O)CCNC(=O)c1cccc2cnc(N[C@H]3CC[C@H](O)CC3)nc12 [Example 106, 2-[(trans-4-hydroxycyclohexyl)amino]-N-[2-(methylsulfonyl)ethyl]quinazoline-8-carboxamide]	6.65	
C[C@@H](NC(=O)c1cccc2cnc(N[C@H]3CC[C@H](O)CC3)nc12)[C@@H](O)c1ccccc1 [Example 472, 2-[(trans-4-hydroxycyclohexyl)amino]-N-[(1R,2S)-2-hydroxy-1-methyl-2-phenylethyl]quinazoline-8-carboxamide]		inhibition at 1 µM: 25%
CC(C)(CO)NC(=O)c1ccc2cnc(NC3CCCC3)nc2c1 [Example 438, 2-(cyclopentylamino)-N-(2-hydroxy-1,1-dimethylethyl)quinazoline-7-carboxamide]		inhibition at 10 µM: 63%
O=C(NC1CCS(=O)(=O)C1)c1ccc2cnc(N[C@H]3CC[C@H](O)CC3)nc2c1 (stereo partly drawn) [Example 79, N-(1,1-dioxidotetrahydro-3-thienyl)-2-[(trans-4-hydroxycyclohexyl)amino]quinazoline-7-carboxamide]	6.53	
O=C(NC1CCS(=O)(=O)C1)c1ccc2cnc(N[C@H]3CC[C@H](O)CC3)nc2c1 (stereo partly drawn) [Example 60, N-(1,1-dioxidotetrahydro-3-thienyl)-2-[(trans-4-hydroxycyclohexyl)amino]quinazoline-7-carboxamide]	6.80	
CN1CCC[C@H]1COc1cccc2cnc(N[C@H]3CC[C@H](O)CC3)nc12 [Example 257, trans-4-[(8-{[(2S)-1-methylpyrrolidin-2-yl]methoxy}quinazolin-2-yl)amino]cyclohexanol]		inhibition at 10 µM: 62%
CN([C@H]1CC[C@H](Nc2ncc3cccc(C(=O)N[C@@H]4COC[C@H]4O)c3n2)CC1)S(C)(=O)=O (relative stereo) [Example 141, N-[(trans)-4-hydroxytetrahydrofuran-3-yl]-2-({trans-4-[methyl(methylsulfonyl)amino]cyclohexyl}amino)quinazoline-8-carboxamide]	7.54	
O[C@H]1CC[C@H](Nc2ncc3ccc(OC[C@H]4CCCN4Cc4ccccc4)cc3n2)CC1 [Example 294, trans-4-[(7-{[(2R)-1-benzylpyrrolidin-2-yl]methoxy}quinazolin-2-yl)amino]cyclohexanol]		inhibition at 1 µM: 24%
O=C(NCCc1nc2ccccc2[nH]1)c1cccc2cnc(N[C@H]3CC[C@H](O)CC3)nc12 [Example 480, N-[2-(1H-benzimidazol-2-yl)ethyl]-2-[(trans-4-hydroxycyclohexyl)amino]quinazoline-8-carboxamide]		inhibition at 1 µM: 11%
CC(=O)N1CCC(NC(=O)c2ccc3cnc(N[C@H]4CC[C@H](O)CC4)nc3c2)CC1 [Example 365, N-(1-acetylpiperidin-4-yl)-2-[(trans-4-hydroxycyclohexyl)amino]quinazoline-7-carboxamide]	5.69	
C[C@@H](CO)NC(=O)c1ccc2cnc(N[C@H]3CC[C@H](O)CC3)nc2c1 [Example 403, 2-[(trans-4-hydroxycyclohexyl)amino]-N-[(1S)-2-hydroxy-1-methylethyl]quinazoline-7-carboxamide]	6.20	
CC(C)[C@@H](CO)NC(=O)c1ccc2cnc(NC3CCCCC3)nc2c1 [Example 389, 2-(cyclohexylamino)-N-[(1S)-1-(hydroxymethyl)-2-methylpropyl]quinazoline-7-carboxamide]	6.50	
O[C@H]1CC[C@H](Nc2ncc3ccc(OCC4CCOCC4)cc3n2)CC1 [Example 158, trans-4-{[7-(tetrahydro-2H-pyran-4-ylmethoxy)quinazolin-2-yl]amino}cyclohexanol]	6.70	
CC(=O)N[C@H]1CC[C@H](Nc2ncc3ccc(OC4CCOC4)cc3n2)CC1 (stereo partly drawn) [Example 164, N-(trans-4-{[7-(tetrahydrofuran-3-yloxy)quinazolin-2-yl]amino}cyclohexyl)acetamide]	6.38	
CC(O)CNC(=O)c1ccc2cnc(N[C@H]3CC[C@H](O)CC3)nc2c1 (stereo partly drawn) [Example 351, 2-[(trans-4-hydroxycyclohexyl)amino]-N-(2-hydroxypropyl)quinazoline-7-carboxamide]	5.97	
CC(C)(CO)NC(=O)c1ccc2cnc(NC3CCC3)nc2c1 [Example 439, 2-(cyclobutylamino)-N-(2-hydroxy-1,1-dimethylethyl)quinazoline-7-carboxamide]		inhibition at 10 µM: 44%
O=C(NCCO)c1ccc2cnc(NC3CCC3)nc2c1 [Example 430, 2-(cyclobutylamino)-N-(2-hydroxyethyl)quinazoline-7-carboxamide]		inhibition at 1 µM: 11%
Cc1ccn(CCNC(=O)c2cccc3cnc(N[C@H]4CC[C@H](O)CC4)nc23)n1 [Example 498, 2-[(trans-4-hydroxycyclohexyl)amino]-N-[2-(3-methyl-1H-pyrazol-1-yl)ethyl]quinazoline-8-carboxamide]		inhibition at 1 µM: 11%
CCC[C@@H](CO)NC(=O)c1ccc2cnc(N[C@H]3CC[C@H](O)CC3)nc2c1 [Example 377, 2-[(trans-4-hydroxycyclohexyl)amino]-N-[(1S)-1-(hydroxymethyl)butyl]quinazoline-7-carboxamide]	6.83	
O=C(Nc1nccc2cccnc12)c1cccc2cnc(N[C@H]3CC[C@H](O)CC3)nc12 [Example 315, 2-[(trans-4-hydroxycyclohexyl)amino]-N-1,7-naphthyridin-8-ylquinazoline-8-carboxamide]		inhibition at 10 µM: 52%
O=C(NCc1ccncc1)c1cccc2cnc(N[C@H]3CC[C@H](O)CC3)nc12 [Example 473, 2-[(trans-4-hydroxycyclohexyl)amino]-N-(pyridin-4-ylmethyl)quinazoline-8-carboxamide]		inhibition at 1 µM: 34%
CS(=O)(=O)N1CCC(c2cccc3cnc(N[C@H]4CC[C@H](O)CC4)nc23)C1 (stereo partly drawn) [Example 195, trans-4-({8-[1-(methylsulfonyl)pyrrolidin-3-yl]quinazolin-2-yl}amino)cyclohexanol]	7.09	
O=C(NCc1ccccn1)c1ccc2cnc(N[C@H]3CC[C@H](O)CC3)nc2c1 [Example 86, 2-[(trans-4-hydroxycyclohexyl)amino]-N-(pyridin-2-ylmethyl)quinazoline-7-carboxamide]	6.66	
FCCN[C@H]1CC[C@H](Nc2ncc3cccc(OC4CCOC4)c3n2)CC1 (stereo partly drawn) [Example 194, trans-N-(2-fluoroethyl)-N′-[8-(tetrahydrofuran-3-yloxy)quinazolin-2-yl]cyclohexane-1,4-diamine]	5.84	
O=C(NC1CCCC1)c1cccc2cnc(N[C@H]3CC[C@H](O)CC3)nc12 [Example 115, N-cyclopentyl-2-[(trans-4-hydroxycyclohexyl)amino]quinazoline-8-carboxamide]	6.64	
CN(C)c1ncccc1NC(=O)c1ccc2cnc(N[C@H]3CC[C@H](O)CC3)nc2c1 [Example 331, N-[2-(dimethylamino)pyridin-3-yl]-2-[(trans-4-hydroxycyclohexyl)amino]quinazoline-7-carboxamide]	6.39	
